Measurements as given in US6407142B1, “Use of stilbene derivatives substituted in position 3 as deodorant active agents in cosmetic compositions” (L'Oreal S.A., priority 1999, dated 2002).
In brackets after ≈: the same amount, converted by molar mass. Where two headings read alike, the source gives them in different places.

Legend:
Pityrosporum ovale = test: Microbiostatic activity (MIC) by dilutions in agar medium; format: cell-based; conditions: Malassezia furfur
Procedure: (§1) Each of the 3 compounds was presented in the form of an ethanolic solution. 100 μl of the ethanolic solution were added to 1.9 ml of agar culture heated beyond the melting point to 45° C. (medium chosen as a function of the nutrient requirements of the test strain). After stirring with a Vortex machine, successive dilutions, in geometrical progression by a factor of 2, of the solution obtained were carried out using agar culture medium heated beyond its melting point to 45° C. 1 ml of each dilution was introduced into the wells of a microplate (flask, 24 wells). Four μl of microbial suspension were placed at the surface of the agar medium. Two control wells were also prepared: 100 μl H2O+1.9 ml of culture medium (growth control), […] ethanol+1.9 ml of culture medium (control of non-toxicity of the ethanol diluted to 1/20).
(§2) After incubation under conditions (temperature, atmosphere and duration) dependent on the test strain, the minimum inhibitory concentration (MIC) was given by the lowest concentration of product which inhibited the microbial growth. The results, shown below, are expressed in μg/ml.
(§3) For the control cupules (H2O or ethanol), the observation of microbial growth made it possible to exclude the presence of a placebo effect.

Propionibacterium acnes = test: as above; format: cell-based; conditions: Cutibacterium acnes
Procedure: as §1, §2, §3

Aspergillus niger = test: as above; format: cell-based
Procedure: as §1, §2, §3

Corynebacterium xerosis = test: as above; format: cell-based; conditions: for MIC: Corynebacterium xerosis
Procedure: as §1, §2, §3

Staphylococcus epidermis = test: as above; format: cell-based
Procedure: as §1, §2, §3

Staphylococcus aureus = test: as above; format: cell-based
Procedure: as §1, §2, §3

[1] = In vitro test of inhibition of the evolution of odors on natural sweat (olfactory evaluation by jury of experts); set-up: species or system human; conditions: for average % of reduction in the unpleasantness of the odor (T18 h, T24 h) / average % of reduction in the odor intensity (T18 h, T24 h): 37° C.; for average % of reduction in the unpleasantness of the odor (T18 h, T24 h): hedonistic grade relative to control sweat; for average % of reduction in the odor intensity (T18 h, T24 h): relative to control sweat without deodorant agent; for deodorant efficacy (reduction in the intensity and unpleasantness of the odor), in words: natural sweat, for at least 24 h
Procedure: A test of inhibition of the evolution of odors was carried out on natural sweat. This test is carried out by adding the deodorant agent to fresh sweat, and then in carrying out an olfactory evaluation by means of a jury of experts after incubation at 37° C. for 18 hours and 24 hours. Thus, underarm sweat was collected in a sauna from several human models and combined to form a sample of sweat. In order to obtain the characteristic nauseating odor of sweat, before introducing the active substance, this sample of sweat was incubated for 18 hours at a temperature of 37° C. […] The active substance was then introduced into each of the flasks to be tested.
1) After incubation for 18 hours, the odor of each flask was evaluated.
The odor was evaluated on the basis of 2 criteria:
(a)—overall intensity (grading from 0 to 4):
(b)—the hedonistic assessment (grading from 0 to 6):
2) The flasks were reincubated in an oven at 37° C. for 6 h, the total desired incubation time being 24 h. Evaluation of the odor of each flask was then repeated as before.

[2] = cited from earlier work
[3] = Pityrosporum ovale, agar dilution, read-out: MIC
[4] = Propionibacterium acnes, agar dilution, read-out: MIC
[5] = Staphylococcus epidermis, agar dilution, read-out: MIC

SMILES: Oc1cc(Cl)ccc1Oc1ccc(Cl)cc1Cl [Triclosan, 2,4,4′-trichloro-2′-hydroxydiphenyl ether]
- MIC (Pityrosporum ovale): > 144 µg/mL
- MIC (Propionibacterium acnes): 2.3 µg/mL (≈ 7.94 µM)
- MIC (Aspergillus niger): 18.1 µg/mL (≈ 62.5 µM)
- MIC (Corynebacterium xerosis): 2.3 µg/mL (≈ 7.94 µM)
- MIC (Staphylococcus epidermis; Staphylococcus): 2.3 µg/mL (≈ 7.94 µM)
- MIC (Staphylococcus aureus): 0.1 µg/mL (≈ 0.345 µM)
- average % of reduction in the unpleasantness of the odor (T18 h, T24 h) ([1]; 1 mg/ml of sweat): −26%
- average % of reduction in the odor intensity (T18 h, T24 h) ([1]; 1 mg/ml of sweat): −64%
- average % of reduction in the unpleasantness of the odor (T18 h, T24 h) ([1]; 2 mg/ml of sweat): −26%
- average % of reduction in the odor intensity (T18 h, T24 h) ([1]; 2 mg/ml of sweat): −64%
- solubility in water, in words [2]: insoluble

SMILES: Oc1ccc(C=Cc2ccccc2)cc1 [4-Hydroxystilbene, 4-hydroxystilbene]
- average % of reduction in the unpleasantness of the odor (T18 h, T24 h) ([1]; 1 mg/ml of sweat): −3%
- average % of reduction in the odor intensity (T18 h, T24 h) ([1]; 1 mg/ml of sweat): −18%
- average % of reduction in the unpleasantness of the odor (T18 h, T24 h) ([1]; 2 mg/ml of sweat): −10%
- average % of reduction in the odor intensity (T18 h, T24 h) ([1]; 2 mg/ml of sweat): −21%
- deodorant efficacy (reduction in the intensity and unpleasantness of the odor), in words [1]: highly insufficient efficacy

SMILES: Oc1cc(O)cc(C=Cc2ccccc2)c1 [Pinosylvine, 3,5-dihydroxystilbene]
- MIC (Pityrosporum ovale; [3]): > 400 µg/mL
- MIC (Propionibacterium acnes; [4]): 200 µg/mL (≈ 942 µM)
- MIC (Aspergillus niger; agar dilution, read-out: MIC): 400 µg/mL (≈ 1880 µM)
- MIC (Corynebacterium xerosis; agar dilution, read-out: MIC): 6 µg/mL (≈ 28.3 µM)
- selectivity of bactericidal activity, in words (Corynebacterium xerosis; less active than Resveratrol on all strains except Corynebacterium xerosis): exerted selectively
- MIC (Staphylococcus epidermis; [5]): 400 µg/mL (≈ 1880 µM)
- MIC (Staphylococcus aureus; agar dilution, read-out: MIC): 200 µg/mL (≈ 942 µM)
- average % of reduction in the unpleasantness of the odor (T18 h, T24 h) ([1]; 1 mg/ml of sweat): −33%
- average % of reduction in the odor intensity (T18 h, T24 h) ([1]; 1 mg/ml of sweat): −77%
- average % of reduction in the unpleasantness of the odor (T18 h, T24 h) ([1]; 2 mg/ml of sweat): −40%
- average % of reduction in the odor intensity (T18 h, T24 h) ([1]; 2 mg/ml of sweat): −89%
- deodorant efficacy (reduction in the intensity and unpleasantness of the odor), in words [1]: very large reduction

SMILES: Oc1ccc(/C=C/c2cc(O)cc(O)c2)cc1 [Resveratrol, 3,5,4′-stilbene]
- MIC (Pityrosporum ovale; [3]): > 115 µg/mL
- MIC (Propionibacterium acnes; [4]): 29 µg/mL (≈ 127 µM)
- MIC (Aspergillus niger; agar dilution, read-out: MIC): > 115 µg/mL
- MIC (Corynebacterium xerosis; agar dilution, read-out: MIC): 14 µg/mL (≈ 61.3 µM)
- MIC (Staphylococcus epidermis; [5]): 72 µg/mL (≈ 315 µM)
- MIC (Staphylococcus aureus; agar dilution, read-out: MIC): 72 µg/mL (≈ 315 µM)
